The nature of data set [1]: Cytotoxicity on normal cells, CCK-8 assay. The conditions noted are these: African green monkey. The format is cell-based. As for the experimental part: (§1) African green monkey kidney cells-Vero cells (CCL-81) were used as normal cells to evaluate the cytotoxic effects of the compounds. Under the intervention of such compounds, the living cells can be stained using a cell proliferation-cytotoxicity assay kit Cell Counting Kit-8 (CCK-8 solution), and the OD value was measured to reflect the survival and growth state of the cells, that is, the cell survival rate (%) and the cell growth inhibition rate (%).
(§2) The culture solution containing 10% FBS was regarded as a complete medium. […] After all the cells were cultured to logarithmic growth phase, the tests were performed as follows.
(§3) The adherent cells were digested by pancreatin and suspended to directly collect cells. The cell suspension was centrifuged, and after counted, the cells were seeded in a transparent 96-well culture plate and adjusted to 5×10^3 cells/100 μL/well with respective complete mediums. At the same time, each plate was provided with blank wells without cells and samples and control wells with cells but without samples. The 96-well culture plates were then cultured overnight in a 37° C., 5% CO2 incubator. The test compounds were added at 50 μL/well on the next day, and respective complete mediums were added at the same amount. […] While for the control wells and blank wells, complete mediums rather than the compound samples were added, where the complete culture medium was also added at 100 μL/well. […] 2 h before the end of the incubation, the culture medium was removed, and complete culture medium containing 10% CCK-8 solution was added at 100 μL/well.
(§4) The CC50 was calculated according to the survival rate (%) of Vero cells to reflect the cytotoxic effect of the compounds. The IC50 was calculated according to the growth inhibition (%) of the tumor cells to reflect the antitumor activity of the samples.
On the technique in general: Tetrazolium assays rely on reduction of a dye to a coloured formazan, in cell work by metabolically active cells.

Another data set concerns HeLa cells (CCL-2). In words: Tumor cell growth inhibition, CCK-8 assay. Type of data set: cell-based. Particulars: Homo sapiens, 48 h, CCK-8, growth inhibition. As for the experimental part:
as §1, §2, §3, §4

A further data set deals with Jurkat cells (TIB-152). As to the kind of experiment: Tumor cell growth inhibition, CCK-8 assay. Type of data set: cell-based. Particulars: Homo sapiens, 48 h, CCK-8, growth inhibition. As for the experimental part:
as §1, §2, §3, §4

A further data set has as its system 786-O cells (CRL-1932). In words: Tumor cell growth inhibition, CCK-8 assay. The conditions noted are these: Homo sapiens, 786-0; 48 h, CCK-8, growth inhibition. The format is cell-based. The method, then:
as §1, §2, §3, §4

The next data set relates to MCF7 cells (HTB-22). In words: Tumor cell growth inhibition, CCK-8 assay. The format is cell-based. Particulars: Homo sapiens, 48 h, CCK-8, growth inhibition. As for the experimental part: as §1, §2, §3, §4
In the next data set the test system is PC-3 cells (CRL-1435). In words: Tumor cell growth inhibition, CCK-8 assay. Type of data set: cell-based. Particulars: Homo sapiens, 48 h, CCK-8, growth inhibition, read-out: PC3 IC50. As for the experimental part:
as §1, §2, §3, §4

For a further data set, the system named is A549. As to the kind of experiment: Tumor cell growth inhibition. Type of data set: cell-based. Particulars: Homo sapiens. As for the experimental part:
as §3, §4

A further data set relates to HC7116. In words: Inhibitory effects on various tumor cells. Type of data set: cell-based. The method, then: as §3, §4
The next data set deals with DU-145. In words: Inhibitory effects on various tumor cells. Particulars: Homo sapiens; DU-145 cells. The format is cell-based. As for the experimental part:
as §3, §4

The test system of a further data set is OV-90. As to the kind of experiment: Inhibitory effects on various tumor cells. The format is cell-based. The conditions noted are these: Homo sapiens; OV-90 cells. The method, then: as §3, §4
Another data set deals with RCC4 vhl. In words: Inhibitory effects on various tumor cells. Particulars: Homo sapiens. Type of data set: cell-based. As for the experimental part: as §3, §4
In the next data set the test system is RCC-4. As to the kind of experiment: Inhibitory effects on various tumor cells. The conditions noted are these: Homo sapiens, RCC4; RCC-4 cells. The format is cell-based. The method, then:
as §3, §4

For another data set, the system named is Kasumi. As to the kind of experiment: Inhibitory effects on various tumor cells. Type of data set: cell-based. As for the experimental part:
as §3, §4

The next data set deals with NB4. As to the kind of experiment: Inhibitory effects on various tumor cells. Type of data set: cell-based. The conditions noted are these: Homo sapiens, NB-4. The method, then: as §3, §4
The next data set has as its system K562. As to the kind of experiment: Inhibitory effects on various tumor cells. Type of data set: cell-based. Particulars: Homo sapiens. The method, then:
as §3, §4

For a further data set, the system named is U87. In words: Inhibitory effects on various tumor cells. The format is cell-based. Particulars: Homo sapiens, U-87 MG. As for the experimental part:
as §3, §4

Another data set concerns U2OS. In words: Inhibitory effects on various tumor cells. Type of data set: cell-based. The conditions noted are these: Homo sapiens. The method, then: as §3, §4
A further data set concerns SW1990. In words: Inhibitory effects on various tumor cells. Type of data set: cell-based. Particulars: Homo sapiens. As for the experimental part: as §3, §4
A further data set deals with HEPG-2. As to the kind of experiment: Inhibitory effects on various tumor cells. The conditions noted are these: Homo sapiens, HepG2; HEPG-2 cells. Type of data set: cell-based. As for the experimental part:
as §3, §4

The subject of data set [2] is human non-small cell lung cancer cells A549. In words: Xenograft model of human lung cancer cell A549. Particulars: nude mice, 10 mg/kg intraperitoneal, 28 days; for deaths during treatment: JZ-02 group 9 mice, paclitaxel group 5 mice; for tumor inhibition rate: from tumor tissue weight. Background: In xenograft studies the graft and the host belong to different species.
Description: 23 BALB/c nude mice, weighing 18-22 g and aged 2-4 weeks, were used in the experiment.

Where [3] appears, read: Vero normal cells, 48 h, CCK-8, cell survival rate, read-out: Vero CC50.

Molecules are shown by their SMILES. pIC50: −log10 of the molar value. Where two headings read alike, the source gives them in different places.

For orientation: CC50 means the concentration at which the toxic effect on the cells reaches its halfway point. In general, pIC50 refers to −log10 of the IC50, conventionally taken in molar units. For the molecule `C[C@H]1[C@@H](O)O[C@@H]2O[C@@]3(C)CC[C@H]4[C@H](C)CC[C@@H]1[C@@]24OO3` [Dihydroartemisinin], it took 5880 nM to reach half-maximal cytotoxicity in data set [1] (CC50 at 48 h). Also, the negative-log IC50 (pIC50) is 5.78 with HeLa cells (CCL-2); 4.00 in the data set with Jurkat cells (TIB-152); 5.96 in the data set on 786-O cells (CRL-1932); 4.00 with MCF7 cells (HTB-22); 5.69 in the data set with PC-3 cells (CRL-1435); 5.53 with A549.

Take `C[C@H]1C(O[C@@H]2CC[C@@]3(C)C(C2)C[C@H](O)C2C3CC[C@@]3(C)C2CC[C@@H]3[C@H](C)CCC(=O)O)OC2OC3(C)CCC4[C@H](C)CCC1[C@@]24OO3` (stereo partly drawn) [JZ-2]: in [1] (setting [3]), the CC50 at 48 h is 7810 nM. Also, the pIC50 with HeLa cells (CCL-2) was 7.40; in the data set on Jurkat cells (TIB-152), 6.62; with 786-O cells (CRL-1932), 7.22; in the data set with MCF7 cells (HTB-22) it was 5.47; in the data set with PC-3 cells (CRL-1435) it was 6.59; with HC7116, 6.80. Moreover, the pIC50 with DU-145 was 6.20; in the data set on OV-90, 6.80; with RCC4 vhl it was 4.52; with RCC-4, 5.60; in the data set with Kasumi it was 6.80; in the data set on NB4 it was 6.80. The negative-log IC50 (pIC50) with K562 was 6.80; in the data set with U87, 6.29; with U2OS, 6.45; with SW1990, 6.29; in the data set with HEPG-2, 6.30; in the data set with A549, 7.70. For the same molecule, the “tumor growth (tumor growth curve, FIG. 1)” value in [2] is “significantly inhibit the tumor growth”. Further, in data set [2], the deaths during treatment entry is reported as “no death”. The same molecule returned a tumor inhibition rate in data set [2] of 58%.

`C[C@H]1C(O[C@@H]2CC[C@@]3(C)C(C2)C[C@@H](O)C2C3CC[C@@]3(C)C2CC[C@@H]3[C@H](C)CCC(=O)O)OC2O[C@@]3(C)CCC4[C@H](C)CCC1[C@@]24OO3` (stereo partly drawn) [JZ-4]: the 50% cytotoxic concentration (CC50) at 48 h in data set [1] (setting [3]) turned out to be 100000 nM. Also, the pIC50 was 4.60 with HeLa cells (CCL-2); 4.49 with Jurkat cells (TIB-152); 4.00 with 786-O cells (CRL-1932); 4.46 with MCF7 cells (HTB-22); 4.60 with PC-3 cells (CRL-1435); 5.62 with A549.

Molecule `CC(C)[C@@H](C)/C=C/[C@@H](C)[C@H]1CCC2C3=CC=C4CC(OC5OC6OC7(C)CCC8[C@H](C)CCC([C@H]5C)[C@@]68OO7)CC[C@]4(C)C3CC[C@@]21C` (stereo partly drawn) [JZ-6] displayed a cytotoxic concentration (CC50) at 48 h in data set [1] of 100000 nM. Moreover, the negative logarithm of the IC50 (pIC50) was 4.00 with HeLa cells (CCL-2); 4.47 in the data set on Jurkat cells (TIB-152); 4.00 with 786-O cells (CRL-1932); 4.35 with MCF7 cells (HTB-22); 4.00 with PC-3 cells (CRL-1435); 5.20 in the data set on A549.

Regarding `CC(=O)O[C@H]1C(=O)[C@@]2(C)[C@H]([C@H](OC(=O)c3ccccc3)[C@]3(O)C[C@H](OC(=O)[C@H](O)[C@@H](NC(=O)c4ccccc4)c4ccccc4)C(C)=C1C3(C)C)[C@]1(OC(C)=O)CO[C@@H]1C[C@@H]2O` [Taxol, paclitaxel, reference compound], in data set [1], half-maximal cytotoxicity (CC50 at 48 h) was put at 1500 nM. The negative logarithm of the IC50 (pIC50) is 8.22 in the data set with HeLa cells (CCL-2); 7.52 in the data set on Jurkat cells (TIB-152); 8.22 in the data set with 786-O cells (CRL-1932); 8.00 in the data set with MCF7 cells (HTB-22); 8.22 in the data set with PC-3 cells (CRL-1435); 8.00 in the data set with HC7116. For the same molecule, the pIC50 in the data set on DU-145 was 8.00; in the data set on OV-90, 8.00; in the data set with RCC4 vhl, 4.52; in the data set with RCC-4, 5.00; in the data set with Kasumi, 8.00; in the data set on NB4 it was 8.00. In addition, the pIC50 with K562 was 8.00; in the data set on U2OS, 8.00; in the data set on SW1990 it was 8.00; with HEPG-2, 8.00; in the data set with A549, 8.22. Further, in data set [2], the deaths during treatment result is “one death”. Besides, the tumor inhibition rate in data set [2] is recorded as 52%.

The record behind these values is patent publication US10881636B2, “Dihydroartemisinin-steroid conjugate and preparation method and application thereof” (YUNBAIYAO ZHENGWU SCIENCE AND TECHNOLOGY (SHANGHAI) CO., …, priority 2017, dated 2021).
